From patent US9181234B2, “Antibacterial compounds” (priority 2010, dated 2015)
≈ marks a conversion by molar mass, not a printed value.

Key:
[1] = physchem; settings: kinetic from dmso stock
Outline: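 DMSO doubling dilutions were diluted twenty-fold into 100 mM citrate (pH 4), PBS (pH 7.4) or carbonate-bicarbonate (pH 9). After 24 h equilibration at room temperature, absorbance was read at 620 nm. The reported value is the highest concentration without measurable precipitate.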

[2] = tested on: Streptococcus pyogenes (Isolate ID ATCC 51339); assay: Antibacterial activity, MIC, S. pyogenes; format: cell-based; settings: Streptococcus pyogenes, ATCC51339, Gram positive strain; broth microdilution or agar dilution
Outline: (§1)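 CLSI-guided dilution susceptibility testing (broth or agar) gave the MIC for each strain.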

[3] = tested on: Enterococcus faecalis (Isolate ID ATCC 29212); assay: Antibacterial activity, MIC, E. faecalis; format: cell-based; settings: Enterococcus faecalis, ATCC29212; Gram positive strain; broth microdilution or agar dilution
Outline: as §1

[4] = tested on: Staphylococcus aureus (Isolate ID ATCC 29213); assay: Antibacterial activity, MIC, S. aureus; format: cell-based; settings: Staphylococcus aureus, ATCC29213, Gram positive strain; broth microdilution or agar dilution
Outline: as §1

[5] = tested on: Haemophilus influenzae (Isolate ID ATCC 49247); assay: Antibacterial activity, MIC, H. influenzae; format: cell-based; settings: Haemophilus influenzae, ATCC49247; Gram negative strain; broth microdilution or agar dilution
Outline: as §1

[6] = pH 7.4, aqueous buffer, Max Solubility
[7] = pH 7.4, aqueous buffer, Solubility (pH 7.4)
[8] = pH 7.4, aqueous buffer, Solubility Range
[9] = pH 7.4, aqueous buffer, Solubility Range (maximum solubility)
[10] = pH 9, aqueous buffer, Max Solubility
[11] = pH 9, aqueous buffer, Solubility Range (maximum solubility)

| SMILES | solubility at 24 h [1, 6] | solubility at 24 h [1, 7] | solubility at 24 h [1, 8] | solubility at 24 h [1, 9] | MIC [2] | MIC [3] | MIC [4] | MIC [5] | solubility at 24 h [1, 10] | solubility at 24 h [1, 11] |
| --- | --- | --- | --- | --- | --- | --- | --- | --- | --- | --- |
| CCNC(=O)Nc1nc2cc(-c3cnc(N4CCC(C)(C(=O)O)CC4)nc3)cc(/C=N/OC)c2s1 [Compound 72, (E)-1-(5-(2-(3-ethylureido)-7-((methoxyimino)methyl)benzo[d]thiazol-5-yl)pyrimidin-2-yl)-4-methylpiperidine-4-carboxylic acid] | ≥ 800 µg/mL | ≥ 800 µg/mL | > 800 µg/mL | > 800 µg/mL | ≤ 0.25 µg/mL | ≤ 0.25 µg/mL | ≤ 0.25 µg/mL | 0.25 to 1 µg/mL (≈ 0.502 to 2.01 µM) | – | – |
| CCNC(=O)Nc1nc2cc(-c3cnc(N4CCC(C)(C(=O)O)CC4)nc3)cc(-c3cncc(OC(C)(C)C)n3)c2s1 [Compound 73] | – | 400 µg/mL (≈ 677 µM) | 400 to 800 µg/mL (≈ 677 to 1350 µM) | – | 1 to 16 µg/mL (≈ 1.69 to 27.1 µM) | ≤ 0.25 µg/mL | 0.25 to 1 µg/mL (≈ 0.423 to 1.69 µM) | > 16 µg/mL | ≥ 800 µg/mL | > 800 µg/mL |
| CCNC(=O)Nc1nc2cc(-c3cnc(N4CCC(C)(C(=O)O)CC4)nc3)cc(C3CCN(C(C)=O)CC3)c2s1 [Compound 74, 1-[5-[7-(1-acetyl-4-piperidyl)-2-(ethylcarbamoylamino)-1,3-benzothiazol-5-yl]pyrimidin-2-yl]-4-methyl-piperidine-4-carboxylic acid] | ≥ 800 µg/mL | ≥ 800 µg/mL | > 800 µg/mL | > 800 µg/mL | 1 to 16 µg/mL (≈ 1.77 to 28.3 µM) | 1 to 16 µg/mL (≈ 1.77 to 28.3 µM) | > 16 µg/mL | > 16 µg/mL | – | – |
| CCNC(=O)Nc1nc2cc(-c3cnc(N4CCC(C)(C(=O)O)CC4)nc3)cc(-c3cnc(N(C)C)s3)c2s1 [Compound 75] | – | 25 µg/mL (≈ 44.1 µM) | 12.5 to 400 µg/mL (≈ 22.1 to 706 µM) | – | 0.25 to 1 µg/mL (≈ 0.441 to 1.76 µM) | ≤ 0.25 µg/mL | 0.25 to 1 µg/mL (≈ 0.441 to 1.76 µM) | 1 to 16 µg/mL (≈ 1.76 to 28.2 µM) | 100 µg/mL (≈ 176 µM) | 12.5 to 400 µg/mL (≈ 22.1 to 706 µM) |
| CCNC(=O)Nc1nc2cc(-c3cnc(N4CCC(C)(C(=O)O)CC4)nc3)cc(-c3cnc(N4CCOCC4)s3)c2s1 [Compound 76] | ≥ 800 µg/mL | ≥ 800 µg/mL | > 800 µg/mL | > 800 µg/mL | 0.25 to 1 µg/mL (≈ 0.411 to 1.64 µM) | ≤ 0.25 µg/mL | 1 to 16 µg/mL (≈ 1.64 to 26.3 µM) | > 16 µg/mL | – | – |
| CCNC(=O)Nc1nc2cc(-c3cnc(N4CCC(C)(C(=O)O)CC4)nc3)cc(-c3cnc(CC)s3)c2s1 [Compound 77] | – | 200 µg/mL (≈ 363 µM) | 12.5 to 400 µg/mL (≈ 22.7 to 725 µM) | – | ≤ 0.25 µg/mL | ≤ 0.25 µg/mL | ≤ 0.25 µg/mL | 1 to 16 µg/mL (≈ 1.81 to 29 µM) | 400 µg/mL (≈ 725 µM) | 400 to 800 µg/mL (≈ 725 to 1450 µM) |
| CCNC(=O)Nc1nc2cc(-c3cnc(N4CCC(C)(C(=O)O)CC4)nc3)cc(-c3cnc(OCC)s3)c2s1 [Compound 78] | – | 400 µg/mL (≈ 705 µM) | 400 to 800 µg/mL (≈ 705 to 1410 µM) | – | 0.25 to 1 µg/mL (≈ 0.44 to 1.76 µM) | ≤ 0.25 µg/mL | 0.25 to 1 µg/mL (≈ 0.44 to 1.76 µM) | > 16 µg/mL | ≥ 800 µg/mL | > 800 µg/mL |
| CCNC(=O)Nc1nc2cc(-c3cnc(N4CCC(C)(C(=O)O)CC4)nc3)cc(-c3ccn(C)c(=O)c3)c2s1 [Compound 79] | ≥ 800 µg/mL | ≥ 800 µg/mL | > 800 µg/mL | > 800 µg/mL | 1 to 16 µg/mL (≈ 1.83 to 29.2 µM) | 1 to 16 µg/mL (≈ 1.83 to 29.2 µM) | > 16 µg/mL | > 16 µg/mL | – | – |
| CCNC(=O)Nc1nc2cc(-c3cnc(N4CCC(C)(C(=O)O)CC4)nc3)cc(-c3cc(=O)n(CCOC)cn3)c2s1 [Compound 80] | 400 µg/mL (≈ 675 µM) | 400 µg/mL (≈ 675 µM) | 400 to 800 µg/mL (≈ 675 to 1350 µM) | 400 to 800 µg/mL (≈ 675 to 1350 µM) | 1 to 16 µg/mL (≈ 1.69 to 27 µM) | 1 to 16 µg/mL (≈ 1.69 to 27 µM) | > 16 µg/mL | 1 to 16 µg/mL (≈ 1.69 to 27 µM) | – | – |
| CCNC(=O)Nc1nc2cc(-c3cnc(N4CCC(C)(C(=O)O)CC4)nc3)cc(-c3cncc(OC)n3)c2s1 [Compound 81] | – | 200 µg/mL (≈ 365 µM) | 12.5 to 400 µg/mL (≈ 22.8 to 729 µM) | – | ≤ 0.25 µg/mL | ≤ 0.25 µg/mL | ≤ 0.25 µg/mL | 1 to 16 µg/mL (≈ 1.82 to 29.2 µM) | 400 µg/mL (≈ 729 µM) | 400 to 800 µg/mL (≈ 729 to 1460 µM) |
| CCNC(=O)Nc1nc2cc(-c3cnc(N4CCC(C)(C(=O)O)CC4)nc3)cc(-c3ccc(CC#N)cn3)c2s1 [Compound 82] | – | 200 µg/mL (≈ 359 µM) | 12.5 to 400 µg/mL (≈ 22.5 to 719 µM) | – | ≤ 0.25 µg/mL | ≤ 0.25 µg/mL | ≤ 0.25 µg/mL | 0.25 to 1 µg/mL (≈ 0.449 to 1.8 µM) | ≥ 800 µg/mL | > 800 µg/mL |
| CCNC(=O)Nc1nc2cc(-c3cnc(N4CCC(C)(C(=O)O)CC4)nc3)cc(-c3cnc(CC)cn3)c2s1 [Compound 83] | – | 200 µg/mL (≈ 366 µM) | 12.5 to 400 µg/mL (≈ 22.9 to 732 µM) | – | ≤ 0.25 µg/mL | ≤ 0.25 µg/mL | ≤ 0.25 µg/mL | 0.25 to 1 µg/mL (≈ 0.457 to 1.83 µM) | ≥ 800 µg/mL | > 800 µg/mL |
